Source: patent publication US11718604B2, “4-amino-6-(1,3-benzodioxole)picolinates and their use as herbicides” (Dow AgroSciences LLC, priority 2018, dated 2023)

Columns and labels:
Type in all cases: in vivo
[1] = system: ABUTH: velvetleaf (Abutilon theophrasti); experiment: Post-emergent herbicidal test, velvetleaf; settings: post-emergence, 336 h, 14 days after application, read-out: Visual Growth Reduction (%) 14 Days After Application ABUTH
Method in brief: (§1)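 Post-emergence foliar spray, 187 L/ha, 1st–2nd true leaf plants; vehicle acetone/DMSO/IPA/water + Atplus 411F + Triton X-155; solvent-blank controls; subirrigated; 14 d greenhouse, visual % injury.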

[2] = system: BRSNN: oilseed rape, canola (Brassica napus); experiment: Post-emergent herbicidal test, oilseed rape; settings: post-emergence, 336 h, 14 days after application, read-out: Visual Growth Reduction (%) 14 Days After Application BRSNN
Method in brief: as §1

[3] = system: CIRAR: Canada thistle (Cirsium arvense); experiment: Post-emergent herbicidal test, Canada thistle; settings: post-emergence, 336 h, 14 days after application, read-out: Visual Growth Reduction (%) 14 Days After Application CIRAR
Method in brief: as §1

[4] = system: EPHHL: wild poinsettia (Euphorbia heterophylla); experiment: Post-emergent herbicidal test, wild poinsettia; settings: post-emergence, 336 h, 14 days after application, read-out: Visual Growth Reduction (%) 14 Days After Application EPHHL
Method in brief: as §1

[5] = system: IPOHE: ivyleaf morningglory (Ipomoea hederacea); experiment: Post-emergent herbicidal test, ivyleaf morningglory; settings: post-emergence, 336 h, 14 days after application, read-out: Visual Growth Reduction (%) 14 Days After Application IPOHE
Method in brief: as §1

[6] = system: VIOTR: wild violet (Viola tricolor); experiment: Post-emergent herbicidal test, wild violet; settings: post-emergence, 336 h, 14 days after application, read-out: Visual Growth Reduction (%) 14 Days After Application VIOTR
Method in brief: as §1

[7] = system: CYPES: yellow nutsedge (Cyperus esculentus); experiment: Post-emergent herbicidal test, yellow nutsedge; settings: post-emergence, 336 h, 14 days after application, read-out: Visual Growth Reduction (%) 14 Days After Application CYPES
Method in brief: as §1

[8] = system: DIGSA: large crabgrass (Digitaria sanguinalis); experiment: Post-emergent herbicidal test, large crabgrass; settings: post-emergence, 336 h, 14 days after application, read-out: Visual Growth Reduction (%) 14 Days After Application DIGSA
Method in brief: as §1

[9] = system: ECHCG: barnyardgrass (Echinochloa crus-galli); experiment: Post-emergent herbicidal test, barnyardgrass; settings: post-emergence, 336 h, 14 days after application, read-out: Visual Growth Reduction (%) 14 Days After Application ECHCG
Method in brief: as §1

[10] = system: SETFA: giant foxtail (Setaria faberi); experiment: Post-emergent herbicidal test, giant foxtail; settings: post-emergence, 336 h, 14 days after application, read-out: Visual Growth Reduction (%) 14 Days After Application SETFA
Method in brief: as §1

[11] = system: SORVU: shattercane (Sorghum bicolor); experiment: Post-emergent herbicidal test, shattercane; settings: post-emergence, 336 h, 14 days after application, read-out: Visual Growth Reduction (%) 14 Days After Application SORVU
Method in brief: as §1

COC(=O)c1nc(-c2ccc(F)c3c2OCO3)c(F)c(N)c1Cl [Compound 15]
0%: pest or weed control at 17.5 g/ha ([4]; 17.5 g ai/ha) | pest or weed control at 35 g/ha ([4]; 35 g ai/ha) | pest or weed control at 70 g/ha ([4]; 70 g ai/ha) | pest or weed control at 140 g/ha ([4]; 140 g ai/ha) | pest or weed control at 17.5 g/ha ([5]; 17.5 g ai/ha) | pest or weed control at 35 g/ha ([5]; 35 g ai/ha) | pest or weed control at 70 g/ha ([5]; 70 g ai/ha) | pest or weed control at 140 g/ha ([5]; 140 g ai/ha) | pest or weed control at 17.5 g/ha ([7]; 17.5 g ai/ha) | pest or weed control at 35 g/ha ([7]; 35 g ai/ha) | pest or weed control at 70 g/ha ([7]; 70 g ai/ha) | pest or weed control at 140 g/ha ([7]; 140 g ai/ha) | pest or weed control at 17.5 g/ha ([8]; 17.5 g ai/ha) | pest or weed control at 35 g/ha ([8]; 35 g ai/ha) | pest or weed control at 70 g/ha ([8]; 70 g ai/ha) | pest or weed control at 140 g/ha ([8]; 140 g ai/ha) | pest or weed control at 17.5 g/ha ([9]; 17.5 g ai/ha) | pest or weed control at 35 g/ha ([9]; 35 g ai/ha) | pest or weed control at 70 g/ha ([9]; 70 g ai/ha) | pest or weed control at 140 g/ha ([9]; 140 g ai/ha) | pest or weed control at 17.5 g/ha ([10]; 17.5 g ai/ha) | pest or weed control at 35 g/ha ([10]; 35 g ai/ha) | pest or weed control at 70 g/ha ([10]; 70 g ai/ha) | pest or weed control at 17.5 g/ha ([11]; 17.5 g ai/ha) | pest or weed control at 35 g/ha ([11]; 35 g ai/ha) | pest or weed control at 70 g/ha ([11]; 70 g ai/ha)
95%: pest or weed control at 70 g/ha ([2]; 70 g ai/ha) | pest or weed control at 140 g/ha ([3]; 140 g ai/ha)
40%: pest or weed control at 35 g/ha ([2]; 35 g ai/ha)
30%: pest or weed control at 17.5 g/ha ([6]; 17.5 g ai/ha)
70%: pest or weed control at 17.5 g/ha ([1]; 17.5 g ai/ha) | pest or weed control at 70 g/ha ([6]; 70 g ai/ha)
60%: pest or weed control at 35 g/ha ([6]; 35 g ai/ha)
100%: pest or weed control at 140 g/ha ([1]; 140 g ai/ha) | pest or weed control at 140 g/ha ([2]; 140 g ai/ha)
20%: pest or weed control at 17.5 g/ha ([2]; 17.5 g ai/ha) | pest or weed control at 140 g/ha ([10]; 140 g ai/ha) | pest or weed control at 140 g/ha ([11]; 140 g ai/ha)
90%: pest or weed control at 70 g/ha ([1]; 70 g ai/ha) | pest or weed control at 70 g/ha ([3]; 70 g ai/ha)
85%: pest or weed control at 35 g/ha ([1]; 35 g ai/ha) | pest or weed control at 35 g/ha ([3]; 35 g ai/ha)
80%: pest or weed control at 17.5 g/ha ([3]; 17.5 g ai/ha) | pest or weed control at 140 g/ha ([6]; 140 g ai/ha)
